Bounds are passed on as bounds.

The IC50 is the concentration that gives 50% inhibition.

For this assay, the target named is T1, RANTES/MIP-1α chemokine receptor (CCR1) in THP-1 cell membranes (Homo sapiens, UniProt P32246).
T1 construct: Membranes were prepared from THP-1 cells (ATCC #TIB202); host or cells: THP-1 cells (membrane preparation)
T1 sequence (P32246 1-355): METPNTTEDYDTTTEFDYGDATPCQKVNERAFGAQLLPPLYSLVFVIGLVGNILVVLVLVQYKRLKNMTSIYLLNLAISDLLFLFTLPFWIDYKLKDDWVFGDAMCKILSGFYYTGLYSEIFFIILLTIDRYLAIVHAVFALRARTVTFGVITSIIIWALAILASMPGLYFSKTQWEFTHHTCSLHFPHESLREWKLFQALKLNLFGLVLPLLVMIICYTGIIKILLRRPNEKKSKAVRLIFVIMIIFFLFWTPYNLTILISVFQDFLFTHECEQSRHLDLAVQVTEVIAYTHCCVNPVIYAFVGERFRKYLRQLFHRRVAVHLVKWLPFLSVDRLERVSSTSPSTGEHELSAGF
Description: Receptor binding assay: 125I-RANTES or 125I-MIP-1α binding to THP-1 cell membranes. The conditions noted are these: inhibitor concentration required for 50% inhibition of specific binding; 125I-RANTES or 125I-MIP-1α as ligand, THP-1 cell membranes; read-out: IC50.
As for `CC(C)C(=O)N(Cc1ccc(Cl)cc1)C1CCN(CCC=C2c3cc(C(C)(C)O)ccc3OCc3ncccc32)C1` (centres unmarked) [Example 562, N-(4-Chloro-benzyl)-N-(1-{3-[7-(1-hydroxy-1-methyl-ethyl)-11H-10-oxa-1-aza-dibenzo[a,d]cyclohepten-5-ylidene]-propyl}-pyrrolidin-3-yl)-isobutyramide], the IC50 is less than 10 µM. The figure for `CCC(=O)N(Cc1ccc(Cl)cc1)C1CCN(CCC=C2c3cc(C(C)(C)O)ccc3OCc3ncccc32)C1` (centres unmarked) [Example 563, N-(4-Chloro-benzyl)-N-(1-{3-[7-(1-hydroxy-1-methyl-ethyl)-11H-10-oxa-1-aza-dibenzo[a,d]cyclohepten-5-ylidene]-propyl}-pyrrolidin-3-yl)-propionamide] is less than 10 µM; for `CC(C)(O)c1ccc2c(c1)C(=CCCN1CCC(N(Cc3ccc(Cl)cc3)C(=O)C3CCCC3)C1)c1cccnc1CO2` (centres unmarked) [Example 564, Cyclopentanecarboxylic acid (4-chloro-benzyl)-(1-{3-[7-(1-hydroxy-1-methyl-ethyl)-11H-10-oxa-1-aza-dibenzo[a,d]cyclohepten-5-ylidene]-propyl}-pyrrolidin-3-yl)-amide] it is less than 10 µM. The figure for `CC(C)(O)c1ccc2c(c1)C(=CCCN1CCC(N(Cc3ccc(Cl)cc3)C(=O)C3CCCCC3)C1)c1cccnc1CO2` (centres unmarked) [Example 565, Cyclohexanecarboxylic acid (4-chloro-benzyl)-(1-{3-[7-(1-hydroxy-1-methyl-ethyl)-11H-10-oxa-1-aza-dibenzo[a,d]cyclohepten-5-ylidene]-propyl}-pyrrolidin-3-yl)-amide] is less than 10 µM.

`CCCCC(CC)C(=O)N(Cc1ccc(Cl)cc1)C1CCN(CCC=C2c3cc(C(C)(C)O)ccc3OCc3ncccc32)C1` (centres unmarked) [Example 566, 2-Ethyl-hexanoic acid (4-chloro-benzyl)-(1-{3-[7-(1-hydroxy-1-methyl-ethyl)-11H-10-oxa-1-aza-dibenzo[a,d]cyclohepten-5-ylidene]-propyl}-pyrrolidin-3-yl)-amide]: the IC50 was less than 20 µM. The figure for `CC(C)NC(=O)N(Cc1ccc(Cl)cc1)C1CCN(CCC=C2c3cc(C(C)(C)O)ccc3OCc3ncccc32)C1` (centres unmarked) [Example 567, 1-(4-Chloro-benzyl)-1-(1-{3-[7-(1-hydroxy-1-methyl-ethyl)-11H-10-oxa-1-aza-dibenzo[a,d]cyclohepten-5-ylidene]-propyl}-pyrrolidin-3-yl)-3-isopropyl-urea] is less than 1 µM; for `CC(C)(O)c1ccc2c(c1)C(=CCCN1CCC(N(Cc3ccc(Cl)cc3)C(=O)NC3CCCCC3)C1)c1cccnc1CO2` (centres unmarked) [Example 568, 1-(4-Chloro-benzyl)-3-cyclohexyl-1-(1-{3-[7-(1-hydroxy-1-methyl-ethyl)-11H-10-oxa-1-aza-dibenzo[a,d]cyclohepten-5-ylidene]-propyl}-pyrrolidin-3-yl)-urea] it is less than 1 µM. The figure for `CCNC(=O)N(Cc1ccc(Cl)cc1)C1CCN(CCC=C2c3cc(C(C)(C)O)ccc3OCc3ncccc32)C1` (centres unmarked) [Example 569, 1-(4-Chloro-benzyl)-3-ethyl-1-(1-{3-[7-(1-hydroxy-1-methyl-ethyl)-11H-10-oxa-1-aza-dibenzo[a,d]cyclohepten-5-ylidene]-propyl}-pyrrolidin-3-yl)-urea] is less than 1 µM; for `CC(C)(C)CC(C)(C)NC(=O)N(Cc1ccc(Cl)cc1)C1CCN(CCC=C2c3cc(C(C)(C)O)ccc3OCc3ncccc32)C1` (centres unmarked) [Example 570, 1-(4-Chloro-benzyl)-1-(1-{3-[7-(1-hydroxy-1-methyl-ethyl)-11H-10-oxa-1-aza-dibenzo[a,d]cyclohepten-5-ylidene]-propyl}-pyrrolidin-3-yl)-3-(1,1,3,3-tetramethyl-butyl)-urea] it is less than 10 µM. Turning to `CC(C)(O)c1ccc2c(c1)C(=CCCN1CCC(N(Cc3ccc(Cl)cc3)S(C)(=O)=O)C1)c1cccnc1CO2` (centres unmarked) [Example 571, N-(4-Chloro-benzyl)-N-(1-{3-[7-(1-hydroxy-1-methyl-ethyl)-11H-10-oxa-1-aza-dibenzo[a,d]cyclohepten-5-ylidene]-propyl}-pyrrolidin-3-yl)-methanesulfonamide], the IC50 is less than 10 µM. As for “Methyl 1-[3-(5,11-dihydro-7-methoxy[1]benzoxepino[2,3-b]pyridin-5-ylidene)propyl]-4-phenylpiperidin-4-carboxylate [Example 188]”, the figure is greater than 10 µM.

The record behind these values is patent US8653096B2, “Chemokine receptor antagonists and methods of use thereof” (Millennium Pharmaceuticals, Inc., priority 2001, dated 2014).
